From ChEMBL document CHEMBL3886344, “Compounds of modulating TRPV3 function” (2015) come the findings set out here.

What is called pIC50 is −log10 of the IC50, conventionally taken in molar units.

pIC50: −log10 of the molar value.

A short description of this experiment: Inhibition Assay: To determine whether compounds were selective for TRPV3 inhibition over inhibition of other ion channel types, the human ERG (hERG), NaV1.2, and TRPV1 (hTRPV1) channels and the rat TRPV6 (rTRPV6) channel were also stably transfected and expressed or induced to express in mammalian cell lines. The methods for measuring currents from these channels are well-established and have been described in numerous publications (See, Weerapura et al., 2002, J Physiology 540: 15-27; Rush et al., 2005, J Physiology 564: 808-815; Caterina et al., 1997, Nature 389: 816-824; Hoenderhop et al., 2001, J Physiology 537: 747-761; Clapham et al., 2003, Pharmacol Rev 55: 591-596). (In general: hERG is a cardiac potassium channel; its block is linked to QT prolongation.)

Take `Cc1cccc2c1N(C(=O)CSc1ccc(Cl)cn1)CCC2`: the pIC50 is under 4.52.
